Results as given in ChEMBL document CHEMBL4507256 (2021).

Legend:
[1] = molecular target: Tyrosine-protein kinase Tec (Homo sapiens) (UniProt P42680); conditions: Compound concentration 1000.0 nM
[2] = molecular target: Casein kinase I isoform gamma-1 (Homo sapiens) (UniProt Q9HCP0); conditions: Compound concentration 1000.0 nM
[3] = test system: Phosphatidylinositol 4,5-bisphosphate 3-kinase catalytic subunit alpha isoform (Homo sapiens), P42336 [H1047Y]; conditions: Compound concentration 1000.0 nM
[4] = test system: Epidermal growth factor receptor (Homo sapiens), P00533 [UNDEFINED MUTATION]; conditions: Compound concentration 1000.0 nM
Sequence of Epidermal growth factor receptor (Homo sapiens), P00533 [UNDEFINED MUTATION] (P00533 whole entry, looked up, change not shown): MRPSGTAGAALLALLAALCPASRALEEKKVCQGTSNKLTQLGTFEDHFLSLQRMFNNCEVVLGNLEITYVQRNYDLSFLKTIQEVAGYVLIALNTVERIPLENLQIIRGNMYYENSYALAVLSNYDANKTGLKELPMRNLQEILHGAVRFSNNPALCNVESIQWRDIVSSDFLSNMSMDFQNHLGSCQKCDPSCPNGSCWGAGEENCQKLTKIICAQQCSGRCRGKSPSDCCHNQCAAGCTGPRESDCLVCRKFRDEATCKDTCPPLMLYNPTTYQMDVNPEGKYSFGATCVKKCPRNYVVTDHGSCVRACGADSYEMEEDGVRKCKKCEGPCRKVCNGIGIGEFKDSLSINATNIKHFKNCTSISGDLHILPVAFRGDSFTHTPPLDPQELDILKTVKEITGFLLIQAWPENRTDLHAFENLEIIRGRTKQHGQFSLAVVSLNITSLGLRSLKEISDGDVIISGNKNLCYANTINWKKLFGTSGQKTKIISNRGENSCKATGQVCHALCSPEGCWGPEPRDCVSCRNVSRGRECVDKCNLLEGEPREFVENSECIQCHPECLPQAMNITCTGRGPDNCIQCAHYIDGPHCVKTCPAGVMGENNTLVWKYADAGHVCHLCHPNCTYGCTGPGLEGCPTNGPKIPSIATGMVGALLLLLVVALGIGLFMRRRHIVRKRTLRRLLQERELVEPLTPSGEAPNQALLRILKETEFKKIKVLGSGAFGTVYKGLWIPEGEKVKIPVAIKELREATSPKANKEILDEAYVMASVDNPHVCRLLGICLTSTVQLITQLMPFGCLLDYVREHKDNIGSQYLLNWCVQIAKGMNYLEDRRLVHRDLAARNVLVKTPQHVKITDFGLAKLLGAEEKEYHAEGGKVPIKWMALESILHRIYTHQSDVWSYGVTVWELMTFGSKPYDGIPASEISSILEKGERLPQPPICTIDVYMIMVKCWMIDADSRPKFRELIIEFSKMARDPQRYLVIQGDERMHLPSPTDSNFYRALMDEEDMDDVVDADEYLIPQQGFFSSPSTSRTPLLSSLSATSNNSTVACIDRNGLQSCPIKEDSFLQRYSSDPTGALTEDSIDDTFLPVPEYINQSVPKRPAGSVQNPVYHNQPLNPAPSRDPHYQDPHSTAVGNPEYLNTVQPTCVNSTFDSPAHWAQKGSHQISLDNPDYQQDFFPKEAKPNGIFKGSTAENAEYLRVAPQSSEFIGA

[5] = molecular target: Serine/threonine-protein kinase Nek2 (Homo sapiens) (UniProt P51955); conditions: Compound concentration 1000.0 nM
Sequence of Serine/threonine-protein kinase Nek2 (Homo sapiens) (P51955 whole entry): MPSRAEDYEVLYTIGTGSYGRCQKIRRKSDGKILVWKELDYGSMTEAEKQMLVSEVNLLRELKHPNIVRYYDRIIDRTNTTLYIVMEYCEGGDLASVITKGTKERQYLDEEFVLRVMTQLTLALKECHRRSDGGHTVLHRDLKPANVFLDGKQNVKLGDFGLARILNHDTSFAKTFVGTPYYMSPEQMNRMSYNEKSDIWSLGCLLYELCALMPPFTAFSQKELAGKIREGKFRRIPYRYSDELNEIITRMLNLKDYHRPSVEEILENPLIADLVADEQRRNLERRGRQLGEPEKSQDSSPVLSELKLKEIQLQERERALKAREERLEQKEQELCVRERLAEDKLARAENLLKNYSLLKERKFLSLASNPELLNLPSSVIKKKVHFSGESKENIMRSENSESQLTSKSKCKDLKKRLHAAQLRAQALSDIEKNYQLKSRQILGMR

[6] = molecular target: Receptor tyrosine-protein kinase erbB-4 (Homo sapiens) (UniProt Q15303); conditions: Compound concentration 1000.0 nM
[7] = molecular target: Serine/threonine-protein kinase pim-3 (Homo sapiens) (UniProt Q86V86); conditions: Compound concentration 1000.0 nM
[8] = molecular target: Sodium-dependent serotonin transporter (Homo sapiens) (UniProt P31645); conditions: Compound concentration 10.0 uM
[9] = molecular target: Calcium/calmodulin-dependent protein kinase type 1B (Homo sapiens) (UniProt Q6P2M8); conditions: Compound concentration 1000.0 nM
Sequence of Calcium/calmodulin-dependent protein kinase type 1B (Homo sapiens) (Q6P2M8 whole entry): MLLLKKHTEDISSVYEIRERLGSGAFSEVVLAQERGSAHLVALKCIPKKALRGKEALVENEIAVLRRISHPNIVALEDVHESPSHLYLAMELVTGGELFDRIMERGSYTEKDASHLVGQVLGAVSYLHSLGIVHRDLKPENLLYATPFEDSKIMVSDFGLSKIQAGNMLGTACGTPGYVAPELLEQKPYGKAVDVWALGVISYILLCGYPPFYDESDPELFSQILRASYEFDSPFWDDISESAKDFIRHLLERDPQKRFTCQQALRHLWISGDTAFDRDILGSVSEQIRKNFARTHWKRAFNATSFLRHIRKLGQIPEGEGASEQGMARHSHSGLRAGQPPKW

[10] = molecular target: Bone morphogenetic protein receptor type-1A (Homo sapiens) (UniProt P36894); conditions: Compound concentration 1000.0 nM
[11] = molecular target: Ephrin type-A receptor 8 (Homo sapiens) (UniProt P29322); conditions: Compound concentration 1000.0 nM
[12] = molecular target: Mitogen-activated protein kinase 10 (Homo sapiens) (UniProt P53779); conditions: Compound concentration 1000.0 nM
[13] = molecular target: 3-phosphoinositide-dependent protein kinase 1 (Homo sapiens) (UniProt O15530); conditions: Compound concentration 1000.0 nM
[14] = molecular target: Histamine H1 receptor (Homo sapiens) (UniProt P35367); conditions: Compound concentration 10.0 uM
[15] = molecular target: Ephrin type-A receptor 1 (Homo sapiens) (UniProt P21709); conditions: Compound concentration 1000.0 nM
[16] = test system: Mast/stem cell growth factor receptor Kit (Homo sapiens), P10721 [V559D]; conditions: Compound concentration 1000.0 nM
[17] = molecular target: Interleukin-1 receptor-associated kinase 1 (Homo sapiens) (UniProt P51617); conditions: Compound concentration 1000.0 nM
[18] = molecular target: Serine/threonine-protein kinase ULK1 (Homo sapiens) (UniProt O75385); conditions: Compound concentration 1000.0 nM
[19] = test system: Epidermal growth factor receptor (Homo sapiens), P00533 [UNDEFINED MUTATION]; conditions: Compound concentration 1000.0 nM; remark: listed apart in the source
[20] = molecular target: Ribosomal protein S6 kinase alpha-4 (Homo sapiens) (UniProt O75676); conditions: Compound concentration 1000.0 nM
[21] = molecular target: Serine/threonine-protein kinase 33 (Homo sapiens) (UniProt Q9BYT3); conditions: Compound concentration 1000.0 nM
[22] = molecular target: Activin receptor type-1B (Homo sapiens) (UniProt P36896); conditions: Compound concentration 1000.0 nM
[23] = molecular target: Serine/threonine-protein kinase SIK1 (Homo sapiens) (UniProt P57059); conditions: Compound concentration 1000.0 nM
[24] = molecular target: Protein-tyrosine kinase 6 (Homo sapiens) (UniProt Q13882); conditions: Compound concentration 1000.0 nM
[25] = molecular target: Serine/threonine-protein kinase Nek7 (Homo sapiens) (UniProt Q8TDX7); conditions: Compound concentration 1000.0 nM
Sequence of Serine/threonine-protein kinase Nek7 (Homo sapiens) (Q8TDX7 whole entry, looked up): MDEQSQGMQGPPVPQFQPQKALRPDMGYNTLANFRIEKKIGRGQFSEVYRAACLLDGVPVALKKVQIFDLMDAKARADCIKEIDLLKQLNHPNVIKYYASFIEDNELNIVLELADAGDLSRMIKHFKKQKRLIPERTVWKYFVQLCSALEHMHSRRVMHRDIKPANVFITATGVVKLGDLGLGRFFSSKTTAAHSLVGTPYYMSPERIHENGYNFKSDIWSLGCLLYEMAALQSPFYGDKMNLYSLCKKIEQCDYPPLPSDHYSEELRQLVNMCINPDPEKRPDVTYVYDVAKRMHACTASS

[26] = molecular target: Mitogen-activated protein kinase kinase kinase 10 (Homo sapiens) (UniProt Q02779); conditions: Compound concentration 1000.0 nM
[27] = test system: Phosphatidylinositol 4,5-bisphosphate 3-kinase catalytic subunit alpha isoform (Homo sapiens), P42336 [E545A]; conditions: Compound concentration 1000.0 nM
[28] = molecular target: Myosin-IIIb (Homo sapiens) (UniProt Q8WXR4); conditions: Compound concentration 1000.0 nM
[29] = molecular target: Tyrosine-protein kinase JAK3 (Homo sapiens) (UniProt P52333); conditions: Compound concentration 1000.0 nM
[30] = molecular target: Homeodomain-interacting protein kinase 3 (Homo sapiens) (UniProt Q9H422); conditions: Compound concentration 1000.0 nM
[31] = molecular target: Serine/threonine-protein kinase D1 (Homo sapiens) (UniProt Q15139); conditions: Compound concentration 1000.0 nM
Sequence of Serine/threonine-protein kinase D1 (Homo sapiens) (Q15139 whole entry): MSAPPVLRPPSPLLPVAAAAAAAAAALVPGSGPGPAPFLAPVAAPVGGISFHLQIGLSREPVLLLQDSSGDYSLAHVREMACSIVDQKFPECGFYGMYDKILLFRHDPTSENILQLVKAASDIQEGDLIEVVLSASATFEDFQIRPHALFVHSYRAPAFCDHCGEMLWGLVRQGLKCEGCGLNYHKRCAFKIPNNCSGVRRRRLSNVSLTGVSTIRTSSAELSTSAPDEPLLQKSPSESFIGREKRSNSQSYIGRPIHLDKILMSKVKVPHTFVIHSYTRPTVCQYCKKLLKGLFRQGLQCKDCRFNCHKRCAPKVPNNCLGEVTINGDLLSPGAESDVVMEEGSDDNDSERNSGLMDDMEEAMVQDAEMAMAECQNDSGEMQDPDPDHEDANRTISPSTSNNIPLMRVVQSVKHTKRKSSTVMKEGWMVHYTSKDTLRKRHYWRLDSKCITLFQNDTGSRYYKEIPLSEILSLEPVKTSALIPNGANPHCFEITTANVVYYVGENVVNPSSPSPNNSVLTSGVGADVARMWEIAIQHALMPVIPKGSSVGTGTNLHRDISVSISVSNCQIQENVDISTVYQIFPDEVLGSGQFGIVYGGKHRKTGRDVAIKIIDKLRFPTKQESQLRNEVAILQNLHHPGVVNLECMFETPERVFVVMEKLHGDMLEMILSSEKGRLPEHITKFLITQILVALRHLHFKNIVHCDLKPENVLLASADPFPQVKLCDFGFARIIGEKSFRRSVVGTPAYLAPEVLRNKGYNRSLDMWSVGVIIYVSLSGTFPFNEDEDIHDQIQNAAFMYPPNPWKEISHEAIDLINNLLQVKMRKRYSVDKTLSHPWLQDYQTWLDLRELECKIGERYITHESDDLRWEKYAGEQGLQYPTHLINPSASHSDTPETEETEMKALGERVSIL

[32] = test system: Receptor-type tyrosine-protein kinase FLT3 (Homo sapiens), P36888 [D835V]; conditions: Compound concentration 1000.0 nM
[33] = molecular target: Mitogen-activated protein kinase kinase kinase 4 (Homo sapiens) (UniProt Q9Y6R4); conditions: Compound concentration 1000.0 nM
[34] = molecular target: Serine/threonine-protein kinase PAK 2 (Homo sapiens) (UniProt Q13177); conditions: Compound concentration 1000.0 nM
[35] = molecular target: Beta-3 adrenergic receptor (Homo sapiens) (UniProt P13945); conditions: Compound concentration 10.0 uM
[36] = molecular target: Serine/threonine-protein kinase 4 (Homo sapiens) (UniProt Q13043); conditions: Compound concentration 1000.0 nM
[37] = molecular target: Insulin-like growth factor 1 receptor (Homo sapiens) (UniProt P08069); conditions: Compound concentration 1000.0 nM
Sequence of Insulin-like growth factor 1 receptor (Homo sapiens) (P08069 31-736 limits assumed): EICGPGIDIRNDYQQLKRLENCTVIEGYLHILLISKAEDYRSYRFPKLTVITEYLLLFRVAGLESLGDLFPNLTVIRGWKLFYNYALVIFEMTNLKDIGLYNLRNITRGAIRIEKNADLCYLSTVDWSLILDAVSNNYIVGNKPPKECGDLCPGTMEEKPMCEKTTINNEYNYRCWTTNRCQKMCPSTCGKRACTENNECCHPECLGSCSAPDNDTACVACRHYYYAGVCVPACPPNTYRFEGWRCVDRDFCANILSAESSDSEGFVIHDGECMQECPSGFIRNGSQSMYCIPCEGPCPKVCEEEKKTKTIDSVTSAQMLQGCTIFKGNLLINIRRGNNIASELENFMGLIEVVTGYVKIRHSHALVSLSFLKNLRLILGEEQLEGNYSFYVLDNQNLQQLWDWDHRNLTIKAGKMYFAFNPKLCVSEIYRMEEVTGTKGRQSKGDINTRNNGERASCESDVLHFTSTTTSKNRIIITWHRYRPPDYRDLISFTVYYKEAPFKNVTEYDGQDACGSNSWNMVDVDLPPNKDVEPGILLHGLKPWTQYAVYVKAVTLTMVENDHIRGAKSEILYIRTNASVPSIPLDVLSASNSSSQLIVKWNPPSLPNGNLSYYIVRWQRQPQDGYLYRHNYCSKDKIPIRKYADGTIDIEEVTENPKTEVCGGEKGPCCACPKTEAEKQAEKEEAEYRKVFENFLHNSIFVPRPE
Sequence of Insulin-like growth factor 1 receptor (Homo sapiens) (P08069 741-1367 limits assumed): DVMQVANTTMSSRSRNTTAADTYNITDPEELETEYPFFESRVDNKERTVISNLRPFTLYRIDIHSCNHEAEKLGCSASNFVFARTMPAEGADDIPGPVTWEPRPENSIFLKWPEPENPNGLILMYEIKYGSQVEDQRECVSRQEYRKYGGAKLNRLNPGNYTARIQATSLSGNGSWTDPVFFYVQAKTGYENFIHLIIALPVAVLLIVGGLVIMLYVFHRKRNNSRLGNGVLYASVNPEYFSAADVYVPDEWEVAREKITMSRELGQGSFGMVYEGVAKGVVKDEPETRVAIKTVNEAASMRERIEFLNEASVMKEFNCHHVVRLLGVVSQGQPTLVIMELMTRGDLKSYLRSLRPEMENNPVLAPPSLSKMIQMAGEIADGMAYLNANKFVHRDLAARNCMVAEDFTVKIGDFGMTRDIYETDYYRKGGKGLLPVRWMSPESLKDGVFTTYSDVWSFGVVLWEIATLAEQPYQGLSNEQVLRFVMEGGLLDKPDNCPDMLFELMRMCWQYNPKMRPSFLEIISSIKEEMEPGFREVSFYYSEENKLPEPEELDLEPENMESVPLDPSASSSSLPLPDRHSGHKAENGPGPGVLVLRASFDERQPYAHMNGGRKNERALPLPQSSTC

[38] = molecular target: Mitogen-activated protein kinase 3 (Homo sapiens) (UniProt P27361); conditions: Compound concentration 1000.0 nM
Sequence of Mitogen-activated protein kinase 3 (Homo sapiens) (P27361 whole entry): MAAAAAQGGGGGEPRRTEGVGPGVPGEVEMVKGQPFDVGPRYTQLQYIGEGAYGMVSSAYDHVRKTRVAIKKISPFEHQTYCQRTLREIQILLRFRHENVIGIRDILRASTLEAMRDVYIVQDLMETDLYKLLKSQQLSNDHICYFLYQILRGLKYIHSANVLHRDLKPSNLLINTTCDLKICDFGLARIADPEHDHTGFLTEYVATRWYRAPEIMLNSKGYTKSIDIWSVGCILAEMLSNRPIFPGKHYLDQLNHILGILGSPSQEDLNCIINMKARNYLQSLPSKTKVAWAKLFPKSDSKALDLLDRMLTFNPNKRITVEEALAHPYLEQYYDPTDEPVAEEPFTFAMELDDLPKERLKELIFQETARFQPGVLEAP

[39] = molecular target: Transient receptor potential cation channel subfamily M member 6 (Homo sapiens) (UniProt Q9BX84); conditions: Compound concentration 1000.0 nM
[40] = molecular target: Inhibitor of nuclear factor kappa-B kinase subunit epsilon (Homo sapiens) (UniProt Q14164); conditions: Compound concentration 1000.0 nM
[41] = molecular target: Phosphatidylinositol 4,5-bisphosphate 3-kinase catalytic subunit gamma isoform (Homo sapiens) (UniProt P48736); conditions: Compound concentration 1000.0 nM
[42] = test system: Receptor-type tyrosine-protein kinase FLT3 (Homo sapiens), P36888 [N841I]; conditions: Compound concentration 1000.0 nM
[43] = molecular target: Serine/threonine-protein kinase Nek3 (Homo sapiens) (UniProt P51956); conditions: Compound concentration 1000.0 nM
[44] = molecular target: 5'-AMP-activated protein kinase catalytic subunit alpha-2 (Homo sapiens) (UniProt P54646); conditions: Compound concentration 1000.0 nM
[45] = molecular target: Serine/threonine-protein kinase 32C (Homo sapiens) (UniProt Q86UX6); conditions: Compound concentration 1000.0 nM

CCC(=N\O)/C(C)=C/c1ccc(F)cc1 [A-079]
residual activity [1]: 89%
residual activity [2]: 99%
residual activity [3]: 82%
residual activity [4]: 59%
residual activity [5]: 100%
residual activity [6]: 66%
residual activity [7]: 96%
inhibition [8]: 13%
residual activity [9]: 82%
residual activity [10]: 86%
residual activity [11]: 100%
residual activity [12]: 100%
residual activity [13]: 87%
inhibition [14]: 9.24%
residual activity [15]: 82%
residual activity [16]: 100%
residual activity [17]: 79%
residual activity [18]: 85%
residual activity [19]: 61%
residual activity [20]: 81%
residual activity [21]: 100%
residual activity [22]: 77%
residual activity [23]: 80%
residual activity [24]: 100%
residual activity [25]: 85%
residual activity [26]: 100%
residual activity [27]: 76%
residual activity [28]: 100%
residual activity [29]: 80%
residual activity [30]: 78%
residual activity [31]: 71%
residual activity [32]: 100%
residual activity [33]: 99%
residual activity [34]: 82%
inhibition [35]: -0.54%
residual activity [36]: 78%
residual activity [37]: 79%
residual activity [38]: 69%
residual activity [39]: 64%
residual activity [40]: 94%
residual activity [41]: 100%
residual activity [42]: 74%
residual activity [43]: 100%
residual activity [44]: 88%
residual activity [45]: 65%

CCC(=N\O)/C(C)=C/c1ccc(F)c(C)c1 [A-226]
residual activity [1]: 100%
residual activity [2]: 100%
residual activity [3]: 100%
residual activity [4]: 71%
residual activity [5]: 100%
residual activity [6]: 98%
residual activity [7]: 80%
inhibition [8]: 8.28%
residual activity [9]: 100%
residual activity [10]: 100%
residual activity [11]: 99%
residual activity [12]: 100%
residual activity [13]: 100%
inhibition [14]: 15.2%
residual activity [15]: 83%
residual activity [16]: 100%
residual activity [17]: 100%
residual activity [18]: 96%
residual activity [19]: 69%
residual activity [20]: 91%
residual activity [21]: 96%
residual activity [22]: 82%
residual activity [23]: 96%
residual activity [24]: 75%
residual activity [25]: 100%
residual activity [26]: 75%
residual activity [27]: 100%
residual activity [28]: 67%
residual activity [29]: 94%
residual activity [30]: 100%
residual activity [31]: 100%
residual activity [32]: 100%
residual activity [33]: 72%
residual activity [34]: 79%
inhibition [35]: 11.1%
residual activity [36]: 70%
residual activity [37]: 100%
residual activity [38]: 100%
residual activity [39]: 100%
residual activity [40]: 100%
residual activity [41]: 100%
residual activity [42]: 49%
residual activity [43]: 100%
residual activity [44]: 100%
residual activity [45]: 100%
